Results from patent US6653354B2, “NMDA antagonist comprising xenon” (priority 1999, dated 2003).

Key:
[1] = test system: glutamatergic synapses (NMDA receptor slow component, AMPA/KA receptor fast component) of hippocampal neurons; test: Excitatory (glutamatergic) postsynaptic currents, voltage-clamped autaptic hippocampal neurons; type: cell-based, rat
Experimental: Hippocampal neurons were grown in culture using methods described previously (Segal M M et al, J. Neurophysiol. 1990, 64:1390-1399; Bekkers J M et al, Proc. Natl. Acad. Sci. U.S.A. 1991, 88:7834-7838; Mennerick S et al, J. Neurophysiol. 1995, 73:320-332). Briefly, hippocampi from Sprague Dawley rats (postnatal day 1-3) were dissected, roughly sliced and agitated in a papain-containing solution (20 units ml^−1) for 30 minutes at 37 EC. After washing with enzyme-free solution, the tissue was gently triturated with a fire-polished Pasteur pipette and the cells were plated out at a density of 8-10×10^4 cells ml^−1 and cultured (95% air/5% CO2) at 37° C. Glass coverslips used for culturing the cells were first coated with agarose (0.15% w/v) and then sprayed with a fine mist of poly-D-lysine (PDL) and collagen (0.1 mg ml^−1 PDL and 0.5 mg ml^−1 rat-tail collagen) from a glass micro-atomiser and sterilized by UV exposure. This produced micro-islands of permissive substrate with diameters of between 100 and 1000 μm. At 3-4 days after plating, when the glial cell layer was about 80% confluent, an anti-mitotic agent (cytosine β-D-arabinofuranoside, 5 μM) was added to arrest glial cell proliferation. Neuronal cultures were then allowed to mature for another 4-9 days. We used micro-islands which contained single isolated neurons whose axonal processes and dendritic trees formed multiple self-synapses (autapses). This procedure provided a large population of phenotypically identical monosynaptic connections.
The neurons were voltage-clamped using the whole-cell recording technique (Axopatch 200 amplifier, Axon Instruments, Foster City, Calif.). Electrodes were fabricated from borosilicate glass and typically had resistances of between 3-5 MΩ. Series resistance was compensated by 75-90%. Neurons were voltage-clamped at −60 mV, and synaptic responses were stimulated by a 2 ms depolarising pulse to +20 mV. […] For the synaptic measurements, data were sampled at 50 kHz, filtered at 20 kHz (−3 dB, 8-pole Bessel) and stored on a computer. The extracellular recording solution was (mM) 137 NaCl, 5 KCl, 3 CaCl2, 5 HEPES, 10 glucose, 0.001 glycine, 0.0001 strychnine-HCl, titrated to pH 7.3 with NaOH; and the intracellular (pipette) solution was (mM) 140 KCl, 4 NaCl, 0.5 EGTA, 2 MgATP, 10 HEPES, titrated to pH 7.25 with KOH.
Xenon solutions were prepared by first bubbling pure gases (oxygen, nitrogen or xenon) through fine sintered-glass bubblers in 250- or 500-ml Drechsel bottles filled with extracellular recording saline. […] (To minimise oxidization, the neurotoxins and neurotransmitters were excluded from the fully oxygenated saline.) During bubbling, the solutions were continually stirred at room temperature. These solutions were then mixed to achieve the desired final concentrations of the gases. Our control solutions usually contained 80% of the nitrogen solution and 20% of the oxygen solution, while our test solutions usually contained 80% of the xenon solution and 20% of the oxygen solution. Using a Bunsen water/gas partition coefficient of 0.0965 (Smith R A et al, Biochim. Biophys. Acta 1981, 645:327-338) we calculate that our standard test solution contained 3.4 mM xenon. Xenon (research grade, 99.993% pure) was supplied by BOC gases, Guildford, Surrey, UK. In all cases xenon was pre-applied to the neurons for at least 30 seconds before the initiation of synaptic currents.
In order to obtain an estimate for the total charge transfer, the EPSCs or IPSCs were numerically integrated.

[2] = test system: c Fos expression in arcuate nucleus of hypothalamus; test: c Fos expression in arcuate nucleus after NMA (inhibition of synaptic plasticity in vivo); design: species or system Sprague Dawley female adult rats; details: MK801 0.5 mg/kg s.c. + NMA 100 mg/kg s.c.
Description: With exposure to NMA neuronal activation is enhanced (E vs A) which is indicative of synaptic plasticity. In the presence of both Xenon (D) and MK 801 (B), synaptic plasticity induced by NMA is inhibited. […] This is sometimes referred to as long term potentiation, an example of synaptic plasticity. […] The attenuation of c Fos expression is a reflection of the inhibition of synaptic plasticity.

[3] = test system: neurons of arcuate nucleus of hypothalamus; test: NMA-induced neuron injury in the arcuate nucleus (neuroprotection in vivo); design: species or system Sprague Dawley female adult rats; details: MK801 0.5 mg/kg s.c. + NMA 100 mg/kg s.c.
Experimental: It can be seen that NMA caused neuronal degeneration and vacuoulated swelling in the neuropil giving a spongiform appearance in the arcuate nucleus (E). The degenerated neuron has a pyknotic nucleus, which look like “bulls' eyes” because of oedematous swelling of the cytoplasmic compartment.
Rats were injected with NMA (100 mg/kg) sc and sacrificed 4 hours later after exposure to air (“NMA”; n=7) or xenon 75% (“75% xenon+NMA”; n=8). (For comparison the effect of MK801, the NMDA antagonist, is also shown). The arcuate nucleus was removed and sectioned and stained with cresyl violet. Control animals (“PS”; n=6) had neither NMA nor xenon administered. Data are reflected as either the mean of three sections/animal (upper) or the sum (lower) of degenerated neurons in both arcuate nuclei.

NMDA receptors = type: cell-based, rat; details: neurons clamped at −60 mV
[4] = test system: adenylyl cyclase (AC) / alpha-2 adrenergic receptors; test: Adenylyl cyclase activity in neuroblastoma X glioma hybrid cell line (synaptic plasticity paradigm); type: cell-based
Description: Perturbation of function in the central nervous system can be produced by a change in the strength of neural connections, which is referred to as synaptic plasticity. The present inventors have used the neuroblastoma X glioma hybrid cell line to examine the effect of xenon on synaptic plasticity. In this paradigm the alpha-2 adrenergic receptors, which are pivotally involved in synaptic transmission, inhibit adenylyl cyclase (AC).
To examine the inhibitory effect of alpha-2 adrenergic receptors on AC it is first necessary to stimulate the endogenous AC with Prostaglandin E1 (PGE1).
To induce “synaptic plasticity” cells are pretreated for 8 hours with norepinephrine; after preparing homogenates from thoroughly washed cells, re-applied norepinephrine loses its inhibitory effect on PGE1-stimulated AC activity.

[5] = excitatory currents + 200 μM AP5

`NC(CCCP(=O)(O)O)C(=O)O` (racemic) [AP5, DL-2-amino-5-phosphononpentanoate, reference compound] was tested, and the “reduction in total charge transfer” value ([1]; 200 μM AP5) was 75%, the “Decay half-time % change (means ± SEM)” value [1, 5] was −24.1 ± 3.3% and the “Ifast % change (means ± SEM)” value [1, 5] was 6.8 ± 6.2%. For the same compound, the “Ipeak % change (means ± SEM)” value [1, 5] was −16.3 ± 2.1%, the “Islow % change (means ± SEM)” value [1, 5] was −98.8 ± 0.8% and the “Qfast % change (means ± SEM)” value [1, 5] was 5.3 ± 9.6%. For the same compound, the “Qslow % change (means ± SEM)” value [1, 5] was −96.0 ± 3.4%, the “Total charge transfer % change (means ± SEM)” value [1, 5] was −75.2 ± 2.5% and the “τfast % change (means ± SEM)” value [1, 5] was −5.9 ± 2.3%.

In the case of `C[C@]12N[C@H](Cc3ccccc31)c1ccccc12` [MK801, reference compound], the “synaptic plasticity induced by NMA (c Fos expression)” value [2] is reported as “is inhibited” and the “NMA-induced neuronal injury (cresyl fast violet histology)” value [3] is reported as “prevented NMA-induced injury”.

`CN[C@H](CC(=O)O)C(=O)O` [NMDA, N-methyl-D-aspartate] was tested, and the Hill coefficient (NMDA receptors) was 1.2±0.1 and the EC50 (NMDA receptors; read-out: EC50 for activation of inward current) was 24 ± 2 µM.

In the case of `CCCCC[C@H](O)/C=C/[C@H]1[C@H](O)CC(=O)[C@@H]1CCCCCCC(=O)O` [PGE1, Prostaglandin E1], the “effect on adenylyl cyclase (AC) activity” value ([4]; increasing doses of PGE1) is reported as “dose-dependently stimulates”.

In the case of `NC[C@H](O)c1ccc(O)c(O)c1` [norepinephrine], the “effect on PGE1-stimulated AC activity” value ([4]; norepinephrine coadministered with PGE1) is reported as “dose-dependently inhibited”.
